Source: PubChem BioAssay (NCI)
Several values for one entry are separate records, joined by “and”; a condition that tells them apart may be missing. Identical values can stand only once.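 Growth conditions: 96-well plates. Treatment: test compound, 48 hours, 5 concentrations. Analysis: linear interpolation between bracketing concentrations; unreached endpoints set to highest concentration. GI50: concentration for 50% inhibition of growth. TGI denotes the concentration required for complete inhibition of growth.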

Experiments:
Assay in all cases: growth of human tumour cells (NCI), 48 h
PC-3 prostate = tested on: PC-3 prostate
OVCAR-8 ovarian = tested on: OVCAR-8 ovarian
UACC-257 melanoma = tested on: UACC-257 melanoma
MCF7 breast = tested on: MCF7 breast
SK-MEL-5 melanoma = tested on: SK-MEL-5 melanoma
MOLT-4 leukemia = tested on: MOLT-4 leukemia
CCRF-CEM leukemia = tested on: CCRF-CEM leukemia
NCI/ADR-RES ovarian = tested on: NCI/ADR-RES ovarian
MDA-MB-231 breast = tested on: MDA-MB-231 breast
HCT-15 colon = tested on: HCT-15 colon

| SMILES | GI50 (PC-3 prostate) | TGI (PC-3 prostate) | GI50 (OVCAR-8 ovarian) | TGI (OVCAR-8 ovarian) [µM] | GI50 (UACC-257 melanoma) | TGI (UACC-257 melanoma) | GI50 (MCF7 breast) [nM] | TGI (MCF7 breast) [µM] | GI50 (SK-MEL-5 melanoma) | GI50 (MOLT-4 leukemia) | TGI (MOLT-4 leukemia) | GI50 (CCRF-CEM leukemia) [µM] | TGI (CCRF-CEM leukemia) [µM] | GI50 (NCI/ADR-RES ovarian) | TGI (NCI/ADR-RES ovarian) | GI50 (MDA-MB-231 breast) | TGI (MDA-MB-231 breast) | GI50 (HCT-15 colon) | TGI (HCT-15 colon) | TGI (SK-MEL-5 melanoma) |
| --- | --- | --- | --- | --- | --- | --- | --- | --- | --- | --- | --- | --- | --- | --- | --- | --- | --- | --- | --- | --- |
| O=C1OCC2=C1C(c1cccc(F)c1)c1cc3c(cc1N2CCO)OCCO3 (stereo not drawn) | 195 nM | > 50 µM | 0.244 µM | > 50 | > 20 µM | > 50 µM | 130 | > 50 | 162 nM | 301 nM | > 50 µM | 0.237 | > 50 | 0.208 µM | > 50 µM | 320 nM | > 20.3 µM | 193 nM | > 50 µM | – |
| N/C(=N\OC(=O)NC(Cl)=C(Cl)Cl)c1cc(C(F)(F)F)cc(C(F)(F)F)c1 | – | 38.9 µM | – | 40.6 | – | 31.1 µM | – | > 100 | – | – | 29.6 µM | – | 32.2 | – | 47.2 µM | – | 34.2 µM | – | 48.4 µM | 89.6 µM |
| CC1=C[C@H]2c3c(c(O)c(O)c4oc5cc(O)cc(O)c5c(=O)c34)[C@H](c3cc(O)c(O)c4oc5cc(O)cc(O)c5c(=O)c34)[C@H]2C(C)(C)C1 | 1960 nM and 1800 nM | 7.41 µM and 5.46 µM | 2.38 µM and 3.39 µM | – | 3.02 µM and 4.3 µM | 9.78 µM and 21.6 µM | 725 | 3.88 | 1530 nM and 1430 nM | 764 nM and 1920 nM | 3.31 µM and 12.9 µM | 0.641 | 4.1 | 8.48 µM and 3.63 µM | 34.9 µM and 25.4 µM | 1460 nM and 1830 nM | 4.01 µM and 5.62 µM | 2750 nM and 1620 nM | 16.4 µM and 14 µM | 2.89 µM and 2.84 µM |
| O=C(/C=C/c1cccs1)c1ccsc1 | – | 59.1 µM | – | 96.5 | – | 52.3 µM | – | > 100 | – | – | 40.6 µM | – | 45.5 | – | > 100 µM | – | > 10 µM | – | 40.5 µM | 36 µM |
| O=C(Cc1ccccc1)Nc1nnc(CCSCCc2nnc(NC(=O)Cc3ccccc3)s2)s1 | 4550 nM | > 100 µM | 6.12 µM | > 100 | > 100 µM | > 100 µM | 32600 | > 100 | 58000 nM | 23800 nM | > 100 µM | > 100 | > 100 | > 100 µM | > 100 µM | 6510 nM | 25.7 µM | > 100000 nM | > 100 µM | > 100 µM |
| OC(COc1ccc(Cl)cc1Cl)CN1CCCC1 (stereo not drawn) | – | > 100 µM | – | > 100 | – | 60.2 µM | – | > 100 | – | – | > 100 µM | – | > 100 | – | > 100 µM | – | > 100 µM | – | > 100 µM | > 100 µM |
| Cc1cc(C)cc(Nc2nccc(-c3c(-c4ccc(F)cc4)ncn3C3CCNCC3)n2)c1 | 1560 nM | 3.01 µM | 1.66 µM | 5.01 | 2.09 µM | 4.17 µM | 566 | 2.09 | 1750 nM | 2030 nM | 5.32 µM | 1.92 | 5.97 | 1.79 µM | 4.07 µM | 1500 nM | 3.09 µM | 1150 nM | 2.85 µM | 3.31 µM |
| COc1cc2c(cc1OCCCCCCNC(=O)c1cc3ccccc3[nH]1)N=CC1CCCN1C2=O (stereo not drawn) | 36000 nM | > 100 µM | 30.5 µM | > 100 | 14.4 µM | 51.2 µM | 27300 | > 100 | 14200 nM | 31600 nM | > 100 µM | 27.3 | > 100 | 31.7 µM | > 100 µM | 20900 nM | 79.1 µM | 32100 nM | > 100 µM | 32 µM |
| Cn1cc(-c2csc(-c3cn(CCN4CCOCC4)c4ccc(F)cc34)n2)c2cccnc21 | 2140 nM | 6.64 µM | 2.75 µM | 7.88 | 4.54 µM | 28.9 µM | 1940 | 6.55 | 1850 nM | 1790 nM | 4.46 µM | 3.07 | 9.18 | 2.36 µM | 8.15 µM | 2510 nM | 8.48 µM | 2290 nM | 8.09 µM | 3.56 µM |
| CC(=O)NNC(=O)c1nn(-c2ccc(Cl)cc2)cc1OC(C)=O | 5070 nM | > 25 µM | 22.3 µM | > 100 | 87.8 µM | > 100 µM | > 37000 | > 78.4 | 10400 nM | > 21000 nM | > 100 µM | 10.2 | > 100 | 17 µM | 69.7 µM | 23700 nM | > 87.4 µM | 7230 nM | > 100 µM | > 69.1 µM |
| O=C1Nc2ccccc2C12CC(c1ccccc1)=NN2 (stereo not drawn) | 3890 nM | > 100 µM | 9.28 µM | 96.9 | 5.02 µM | > 100 µM | 3720 | > 100 | 4810 nM | 8410 nM | > 100 µM | 5.52 | > 100 | 7.49 µM | > 100 µM | 8610 nM | 79.7 µM | 4170 nM | > 100 µM | > 100 µM |
| COc1cc2c(cc1OCCCCC(=O)Nc1ccc(-c3nc4ccccc4s3)cc1)N=C[C@@H]1CCCN1C2=O | 2040 nM | 5.93 µM | 1.57 µM | 4.5 | 1.73 µM | 3.81 µM | 732 | 3.43 | 1760 nM | 1630 nM | 5.52 µM | 1.2 | 3.62 | 10.9 µM | 62.6 µM | 2080 nM | 10.2 µM | 2850 nM | 9.81 µM | 3.17 µM |
| CC(C)[C@@H](C(=O)O[C@@H]1/C=C/C(=O)O[C@@H](C)CCC/C=C/[C@@H]2C[C@H](O)C[C@H]21)[N+](C)(C)C | > 100000 nM | > 100 µM | > 100 µM | > 100 | > 100 µM | > 100 µM | > 100000 | > 100 | > 100000 nM | > 100000 nM | > 100 µM | > 100 | > 100 | > 100 µM | > 100 µM | > 100000 nM | > 100 µM | > 100000 nM | > 100 µM | > 100 µM |
| O=C1C[C@@H](c2ccccc2)NCCCCN(O)CCCN1 | – | > 100 µM | – | > 100 | – | > 100 µM | – | > 100 | – | – | > 100 µM | – | > 100 | – | > 100 µM | – | > 100 µM | – | > 100 µM | > 100 µM |
